According to patent US4777250A, “Chymotrypsin model” (Northwestern University, priority 1986, dated 1988):

Tests used:
[1] = Hydrolysis of esters by artificial chymotrypsin (Lineweaver-Burk); assay type: biochemical; details: substrate m-t-butylphenyl acetate
Text: The chymotrypsin model was examined for its catalytic activity in ester hydrolysis.
In FIG. 2 plot A represents the hydrolysis of p-nitrophenyl acetate by chymotrypsin and plot B represents the hydrolysis of m-t-butylphenyl acetate by the miniature organic model of chymotrypsin. [EA ]=1×10^-5 M; [EB ]=3×10^-5 M.
FIG. 3 depicts the relative stability of both β-benzyme/m-t-butylphenyl acetate and α-chymotrypsin/p-nitrophenyl acetate (O) at elevated temperatures. The real enzyme has 245 amino acids whose conformation can be changed by disrupting hydrogen bonds by elevated temperature. In contrast, the artificial chymotrypsin has no amino acids. Abbreviations are explained by the equation [formula] The stability was obtained by determining the catalytic rate constant at various temperatures at pH 8.0 for chymotrypsin, using 400 nm with a Varian 200 spectrophotometer. β-benzyme activity for the artificial enzyme was determned at its optimum pH 10.7 and 288 nm.

[2] = test system: CC(=O)Oc1ccc([N+](=O)[O-])cc1; assay: purified protein, by the assay type; details: other: pH 8.0 (optimum pH), substrate p-nitrophenyl acetate, error limit ± 10%

Molecule | kcat ([1]; pH 10.7 (optimum pH), error limit ± 5%) | Km ([1]; pH 10.7 (optimum pH), error limit ± 10%) | kcat/Km ([1]; pH 10.7) | Km [2] | kcat [2] | kcat/Km [2]
CC(=O)Oc1cccc(C(C)(C)C)c1 [m-t-butylphenyl acetate] | 0.028 s⁻¹ | 133 µM | 210 M⁻¹ s⁻¹ |  |  | 
chymotrypsin (real enzyme, α-chymotrypsin) (Bos taurus) |  |  |  | 40 µM | 0.011 s⁻¹ | 275 M⁻¹ s⁻¹
